Key:
TRPA1+ neurons [1] = molecular target: T1, TRPA1+ neurons (Mus musculus, UniProt Q8BLA8); assay: Pharmacological stimulation of TRPA1+ neurons with polygodial in endotoxemic mice; TNF by ELISA; format: in vivo; settings: wildtype mice; polygodial 5 mg/kg ip 30 min before endotoxin 0.1 mg/kg ip; collected after 90 min
T1 construct: from tissue; host or cells: living mice (wild type and TRPA1 KO), systemic i.p. dosing; TRPA1+ neurons
Protocol: (§1) FIG. 2A-2D. […] A) Serum: wildtype mice received intraperitoneal administration of polygodial (5 mg/kg) (n=6) or vehicle (n=5). After 30 minutes, mice were subjected to endotoxemia (0.1 mg/kg endotoxin, i.p.). Blood was collected after 90 min and serum TNF levels were determined by ELISA. *p<0.05. B) Spleen: wildtype mice received intraperitoneal administration of polygodial (5 mg/kg) (n=7) or vehicle (n=6). After 30 minutes, mice were subjected to endotoxemia (0.1 mg/kg endotoxin, i.p.). Spleens were collected after 90 min and serum TNF levels were determined by ELISA. *p<0.05. C, D) Pharmacological Stimulation of TRPA1+ neurons fail to attenuate TNF levels in endotoxemic TRPA1 KO mice. C) Serum: TRPA1 KO mice received intraperitoneal administration of polygodial (5 mg/kg) (n=9) or vehicle (n=8). After 30 minutes, mice were subjected to endotoxemia (0.1 mg/kg endotoxin, i.p.). Blood was collected after 90 min and serum TNF levels were determined by ELISA. D) Spleen: TRPA1 KO mice received intraperitoneal administration of polygodial (5 mg/kg) (n=9) or vehicle (n=8). After 30 minutes, mice were subjected to endotoxemia (0.1 mg/kg endotoxin, i.p.). Spleens were collected after 90 min and serum TNF levels were determined by ELISA.

TRPA1+ neurons [2] = assay: as above; format: in vivo; settings: TRPA1 KO mice; polygodial 5 mg/kg ip 30 min before endotoxin 0.1 mg/kg ip; collected after 90 min
Protocol: as §1

nodose ganglion neurons = assay: Whole-cell patch clamp recordings of nodose ganglion neurons; format: cell-based, mice; settings: nodose neurons held at −65 mV; IL-1β 20 μg/ml
Protocol: Whole-cell patch clamp recordings were made with glass pipettes pulled on a P-97 electrode puller (Sutter Instruments, Novato, Calif.). The resistance of the pipettes was 2-4 MΩ when filled with an intracellular solution (in mM: CsCl 140, HEPES 10, EGTA 5, Mg-ATP 2, NaGTP 0.3, MgCl2 2, Phosphocreatine 10, pH 7.25 adjusted with CsOH). Cells were superfused at a rate of 2 ml/min with an external bath solution containing the following (in mM): 150 NaCl, 2.5 KCl, 10 HEPES, 10 D-glucose, 2 CaCl2, and 1 MgCl2, pH 7.3-7.4. Experiments were performed at room temperature (22-24° C.). Currents from neurons were monitored with an Multiclamp 700B amplifier (Molecular Devices, Union City, Calif.), acquired through Digidata 1550B (Molecular Devices) onto a computer using pClamp 11 software (Molecular Devices). Data were analyzed using Clampfit 11 (Molecular Devices). All chemicals used for electrophysiological recordings were purchased from Sigma. All drugs and solutions were made fresh from drug stock solutions.
Using patch clamp recordings, IL-1β responses were recorded in nodose ganglion neurons. Application of IL-1β (20 μg/ml) induced calcium influx as indicated by increase of fluorescence in 6 out of 332 (1.8%) sensory nodose ganglion neurons from VGlut2-GCaMP3 mice. Next, whole-cell patch clamp recordings were carried out on the same neurons that responded to IL-1β in calcium influx analysis. When the membrane potential was held at −65 mV, bath application of IL-1β (20 μg/ml) produced slow inward currents in 4 out of 332 (1.2%) nodose neurons. The amplitude of IL-1β induced currents are 108±23 pA (n=4). […] In current-clamp mode, IL-1β reduced action potential threshold from −25±2 mV to −31±3 mV (n=4). […] To further determine the potential interaction of TRPA1 with IL-1β, nodose ganglion neurons from TRPA1 KO mice were examined in a culture system. […] IL1R1 co-localizes with TRPA1 on nodose ganglion neurons, as was determined using immunohistochemical staining.

[3] = molecular target: T2, TRPA1+ fibers of the vagus nerve (Mus musculus, UniProt Q8BLA8); assay: Optovin applied to the vagus nerve with 405 nm optical stimulation, followed by LPS endotoxemia; serum TNF; format: in vivo, mice
T2 construct: optovin was applied directly to nerve; from tissue; also TRPA1 KO and α7 nAChR KO groups
Protocol: (§2) FIG. 1A-1C. Stimulation of sensory TRPA1+ vagus fibers attenuates serum TNF levels in endotoxemic mice. A) Wild type mice were treated with optovin directly to the vagus nerve, followed by exposure to no light (n=9) or 405 nm light (n=10). Mice were also subjected to a proximal vagotomy (n=12) cutting off afferent signaling to the brain. These mice were also treated with optovin and stimulated with 405 nm light. B) TRPA1 KO mice were treated with optovin directly to the vagus nerve. The mice were then treated with no light (n=9) or 405 nm light (n=8). C) α7 KO mice were treated with optovin directly to the vagus nerve. The mice were then treated with no light (n=10) or 405 nm light (n=12). Two asterisks indicate p<0.01.
(§3) Optical stimulation was generated by Thor Labs LED driver DC4100, with a 405 nm LED model M405L3 (Newton, N.J.). Sham mice underwent surgical control up to the point of identifying the cervical vagus nerve, without isolating it from the bundle. In both conditions 2 μl of optovin was applied directly on the nerve for 2 minutes prior to stimulation. Sham animals received no light applied to the nerve. The stimulated group received 405 nm light 1000 mA, 10 hz, with a 10% duty cycle for 5 minutes with an approximate power of 80-85 μW. Animals then recovered for 2 hours and were administered LPS (8 mg/kg) via intraperitoneal (ip) injection. Mice were euthanized 1.5 hours after LPS administration, with serum collected.
(§4) All vagotomized animas had their vagus nerve isolated. Prior to the vagotomy a 6.0 suture was tied around the vagus nerve. The nerve was then cut proximally or above (blocking left vagus nerve signaling to the brain while signaling to the periphery remained intact) to where 2 μl of optovin was to be added. All mice were stimulated using the same parameters as previously indicated. Animals then recovered for 2 hours and were administered LPS (8 mg/kg) via intraperitoneal (ip) injection. Mice were euthanized 1.5 hours after LPS administration, with serum collected.
(§5) Vagus nerve stimulation has been used as a treatment for peripheral inflammation in both rodents and humans^18-21. TRPA1 is an ion channel that has been indicated in neural sensing of inflammation within the skin and lungs 22-24. To determine TRPA1's role in the inflammatory reflex, photochemical stimulation of TRPA1+ fibers of the vagus nerve was carried out using a molecule called optovin. Optovin selectively binds to TRPA1 making it photoactive to 405 nm light^25. To directly stimulate the TRPA1+ vagus nerve fibers, optovin was applied directly to nerve, with one group unstimulated and one group stimulated with the 405 nm light for 5 minutes with LPS (8 mg/kg) administer 2 hours later. […]

[4] = system: TRPA1+ fibers of the vagus nerve; assay: as above; format: in vivo, mice; settings: TRPA1 KO mice; optovin + 405 nm light vs no light; LPS 8 mg/kg
Protocol: as §2, §3, §4, §5

T2 sequence (Q8BLA8 whole entry): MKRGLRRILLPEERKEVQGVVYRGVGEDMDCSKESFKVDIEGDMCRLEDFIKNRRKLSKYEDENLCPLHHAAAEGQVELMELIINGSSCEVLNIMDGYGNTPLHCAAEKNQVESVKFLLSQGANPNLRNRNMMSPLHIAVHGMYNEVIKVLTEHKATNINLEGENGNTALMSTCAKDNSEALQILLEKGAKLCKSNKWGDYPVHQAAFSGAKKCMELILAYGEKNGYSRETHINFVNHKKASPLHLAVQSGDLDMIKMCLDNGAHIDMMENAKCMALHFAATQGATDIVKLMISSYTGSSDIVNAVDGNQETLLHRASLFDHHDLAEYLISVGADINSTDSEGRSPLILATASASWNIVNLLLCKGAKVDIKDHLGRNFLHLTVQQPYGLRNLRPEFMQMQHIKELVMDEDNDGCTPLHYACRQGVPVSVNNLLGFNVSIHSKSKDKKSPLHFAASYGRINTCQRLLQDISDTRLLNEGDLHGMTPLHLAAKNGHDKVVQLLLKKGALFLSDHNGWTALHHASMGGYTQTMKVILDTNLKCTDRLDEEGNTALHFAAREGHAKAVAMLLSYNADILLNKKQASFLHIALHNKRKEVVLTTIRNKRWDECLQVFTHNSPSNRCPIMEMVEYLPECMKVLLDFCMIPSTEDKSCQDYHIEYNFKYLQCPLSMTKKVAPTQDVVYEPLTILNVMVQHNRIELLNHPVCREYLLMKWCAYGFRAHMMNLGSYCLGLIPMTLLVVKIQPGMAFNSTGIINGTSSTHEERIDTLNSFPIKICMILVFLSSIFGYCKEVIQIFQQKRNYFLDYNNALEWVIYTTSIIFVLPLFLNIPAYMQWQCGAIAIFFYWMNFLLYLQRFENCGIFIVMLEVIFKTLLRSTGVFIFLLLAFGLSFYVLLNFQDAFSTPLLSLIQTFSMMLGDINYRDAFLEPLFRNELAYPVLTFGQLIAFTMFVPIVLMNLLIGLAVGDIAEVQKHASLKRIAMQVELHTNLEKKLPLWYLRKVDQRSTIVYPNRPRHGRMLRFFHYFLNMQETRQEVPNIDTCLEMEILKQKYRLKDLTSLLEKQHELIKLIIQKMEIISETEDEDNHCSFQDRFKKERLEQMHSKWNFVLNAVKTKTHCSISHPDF
T1 sequence (Q8BLA8 whole entry): as above

CC1(C)CCC[C@]2(C)[C@@H](C=O)C(C=O)=CC[C@@H]12 [polygodial]
TNF levels in serum (TRPA1+ neurons [1]): attenuates TNF levels | TNF levels in spleen (TRPA1+ neurons [1]): attenuates TNF levels | TNF levels in serum (TRPA1+ neurons [2]): no significant reduction | TNF levels in spleen (TRPA1+ neurons [2]): no significant reduction

Cn1cnc2ncn(Cc3nc(CCc4ccc(Cl)cc4)no3)c(=O)c21 [AM0902, reference compound]
Block of inward currents after IL-1β application (nodose ganglion neurons): completely blocked

Cc1cc(/C=C2/SC(=S)NC2=O)c(C)n1-c1cccnc1 [optovin]
TNF levels in response to LPS ([3]; proximally vagotomized mice, optovin + 405 nm light, LPS 8 mg/kg): no significant reduction in TNF levels | TNF levels in response to LPS ([3]; wild type mice, optovin on vagus nerve, 405 nm light 5 min vs no light, LPS 8 mg/kg ip 2 h later, serum 1.5 h after LPS): significantly reduced TNF levels | serum TNF levels ([3]; α7 nAChR KO mice, optovin + 405 nm light vs no light, LPS 8 mg/kg): did not significantly reduce serum TNF levels | TNF levels in response to LPS [4]: no significant reductions in TNF levels
